Eight molecules from patent US20230143612A1 (Arbutus Biopharma Corporation, priority 2020, published 2023) can be followed below.

The test deals with PD-L1 His protein / PD-1 Fc protein (Homo sapiens, UniProt Q9NZQ7). Kind of test: HTRF Assay (PD-1/PD-L1 interaction). Type of test: binding. The settings on record: PD-L1 His 6 nM, PD-1 Fc 6 nM. The method, boiled down: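 HTRF: PD-L1 His (6 nM final), compound (3-fold dilutions, 20 μM to 0.001 μM final) and PD-1 Fc (6 nM final) preincubated 15 min at room temperature. Anti-human IgG-XL665 and anti-6HIS Tb cryptate (mixed at 6.7 nM and 0.35 nM) then added for 1 h at room temperature before reading.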
Sequence of PD-L1 His protein / PD-1 Fc protein (Q9NZQ7 19-238 limits assumed): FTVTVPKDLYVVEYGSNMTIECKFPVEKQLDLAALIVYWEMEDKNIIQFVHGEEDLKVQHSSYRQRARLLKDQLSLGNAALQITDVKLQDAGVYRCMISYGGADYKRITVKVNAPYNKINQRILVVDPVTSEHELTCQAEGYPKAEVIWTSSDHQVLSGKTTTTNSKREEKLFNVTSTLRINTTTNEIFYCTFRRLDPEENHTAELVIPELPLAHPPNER
For the molecule `O=C1CC[C@@H](CNCc2ccc(-c3cccc(-c4cccc(-c5ccn6c(=O)c(CNC[C@@H]7CCC(=O)N7)cnc6c5)c4Cl)c3Cl)nc2OC2CC2)N1` [Example 109, 8-(2,2′-Dichloro-3′-(6-cyclopropoxy-5-(((((S)-5-oxopyrrolidin-2-yl)methyl)amino)methyl)pyridin-2-yl)-[1,1′-biphenyl]-3-yl)-3-(((((S)-5-oxopyrrolidin-2-yl)methyl)amino)methyl)-4H-pyrido[1,2-a]pyrimidin-4-one], the half-inhibitory concentration (IC50) is 1.4 nM.
Then `O=C1CC[C@@H](CNCc2ccc(-c3cccc(-c4cccc(-c5ccn6c(=O)c(CNC[C@@H]7CCC(=O)N7)cnc6c5)c4Cl)c3Cl)cc2OC(F)F)N1` [Example 110, 8-(2,2′-Dichloro-3″-(difluoromethoxy)-4″-(((((S)-5-oxopyrrolidin-2-yl)methyl)amino)methyl)-[1,1′:3′,1″-terphenyl]-3-yl)-3-(((((S)-5-oxopyrrolidin-2-yl)methyl)amino)methyl)-4H-pyrido[1,2-a]pyrimidin-4-one], with 2.4 nM; and `COc1nc(-c2cccc(-c3cccc(-c4ccn5c(=O)c(CN6CC(C(C)(C)O)C6)cnc5c4)c3Cl)c2Cl)ccc1CNC[C@@H]1CCC(=O)N1` [Example 111, (S)-8-(2,2′-Dichloro-3′-(6-methoxy-5-((((5-oxopyrrolidin-2-yl)methyl)amino)methyl)pyridin-2-yl)-[1,1′-biphenyl]-3-yl)-3-((3-(2-hydroxypropan-2-yl)azetidin-1-yl)methyl)-4H-pyrido[1,2-a]pyrimidin-4-one], with 6.5 nM; and `COc1nc(-c2cccc(-c3cccc(-c4ccn5c(=O)c(CNC[C@@H]6CCC(=O)N6)cnc5c4)c3Cl)c2Cl)ccc1CN1CC(C(C)(C)O)C1` [Example 112, (S)-8-(2,2′-Dichloro-3′-(5-((3-(2-hydroxypropan-2-yl)azetidin-1-yl)methyl)-6-methoxypyridin-2-yl)-[1,1′-biphenyl]-3-yl)-3-((((5-oxopyrrolidin-2-yl)methyl)amino)methyl)-4H-pyrido[1,2-a]pyrimidin-4-one], with 2.9 nM.
For `COC(=O)[C@H](CO)NCc1ccc(-c2cccc(-c3cccc(-c4ccn5c(=O)c(CNC[C@@H]6CCC(=O)N6)cnc5c4)c3Cl)c2Cl)nc1OC` [Example 113, Methyl ((6-(2,2′-dichloro-3′-(4-oxo-3-(((((S)-5-oxopyrrolidin-2-yl)methyl)amino)methyl)-4H-pyrido[1,2-a]pyrimidin-8-yl)-[1,1′-biphenyl]-3-yl)-2-methoxypyridin-3-yl)methyl)-L-serinate], 54 nM corresponded to half-maximal inhibition (IC50).
As for `COc1nc(-c2cccc(-c3cccc(-c4ccn5c(=O)c(CNC[C@@H]6CCC(=O)N6)cnc5c4)c3Cl)c2Cl)ccc1CN[C@@H](CO)C(=O)O` [Example 114, ((6-(2,2′-Dichloro-3′-(4-oxo-3-(((((S)-5-oxopyrrolidin-2-yl)methyl)amino)methyl)-4H-pyrido[1,2-a]pyrimidin-8-yl)-[1,1′-biphenyl]-3-yl)-2-methoxypyridin-3-yl)methyl)-L-serine], the IC50 was 0.6 nM.
On to `COc1nc(-c2cccc(-c3cccc(-c4ccn5c(=O)c(CNC[C@@H]6CCC(=O)N6)cnc5c4)c3Cl)c2Cl)ccc1CNC1(C(=O)O)CC1` [Example 115, (S)-1-(((6-(2,2′-Dichloro-3′-(4-oxo-3-((((5-oxopyrrolidin-2-yl)methyl)amino)methyl)-4H-pyrido[1,2-a]pyrimidin-8-yl)-[1,1′-biphenyl]-3-yl)-2-methoxypyridin-3-yl)methyl)amino)cyclopropane-1-carboxylic acid], for which half-maximal inhibition (IC50) required 2.5 nM.
`COc1nc(-c2cccc(-c3cccc(-c4ccn5c(=O)c(CN6CC[C@H](C(=O)O)C6)cnc5c4)c3Cl)c2Cl)cnc1CNC[C@@H]1CCC(=O)N1` [Example 116, (S)-1-((8-(2,2′-Dichloro-3′-(6-methoxy-5-(((((S)-5-oxopyrrolidin-2-yl)methyl)amino)methyl)pyrazin-2-yl)-[1,1′-biphenyl]-3-yl)-4-oxo-4H-pyrido[1,2-a]pyrimidin-3-yl)methyl)pyrrolidine-3-carboxylic acid] yielded an IC50 of 0.3 nM.
